# Experimental data: article PMC11062906 (Nature, 2024)
# Values joined by “and” are separate entries in the source; they are usually repeats but may differ in a detail not shown here. Identical values can stand only once. “Also recorded” adds a separate entry of the source.
# Tests used:
# BmGr9 D165N = experiment: GCaMP calcium flux assay, BmGr9 D165N; assay type: cell-based, Bombyx mori
# BmGr9 W354F = experiment: GCaMP calcium flux assay, BmGr9 W354F; assay type: cell-based, Bombyx mori
# BmGr9 Q443E_Q445R = BmGr9 Q443E_Q445R (Bombyx mori, UniProt B3GTD7, Q443E/Q445R); experiment: GCaMP calcium flux assay, BmGr9 Q443E_Q445R; assay type: cell-based
# BmGr9 D165A = experiment: GCaMP calcium flux assay, BmGr9 D165A; assay type: cell-based, Bombyx mori
# BmGr9 Q445R = experiment: GCaMP calcium flux assay, BmGr9 Q445R; assay type: cell-based, Bombyx mori
# BmGr9 H358Q = experiment: GCaMP calcium flux assay, BmGr9 H358Q; assay type: cell-based, Bombyx mori
# BmGr9 Q445N = BmGr9 Q445N (Bombyx mori, UniProt B3GTD7, Q445N); experiment: GCaMP calcium flux assay, BmGr9 Q445N; assay type: cell-based
# BmGr9 Q443E_Q445K = BmGr9 Q443E_Q445K (Bombyx mori, UniProt B3GTD7, Q443E/Q445K); experiment: GCaMP calcium flux assay, BmGr9 Q443E_Q445K; assay type: cell-based
# BmGr9 P331A = BmGr9 P331A (Bombyx mori, UniProt B3GTD7, P331A); experiment: GCaMP calcium flux assay, BmGr9 P331A; assay type: cell-based
# BmGr9 Q443N = experiment: GCaMP calcium flux assay, BmGr9 Q443N; assay type: cell-based, Bombyx mori
# BmGr9 F189Y = BmGr9 F189Y (Bombyx mori, UniProt B3GTD7, F189Y); experiment: GCaMP calcium flux assay, BmGr9 F189Y; assay type: cell-based
# BmGr9 Q351N = BmGr9 Q351N (Bombyx mori, UniProt B3GTD7, Q351N); experiment: GCaMP calcium flux assay, BmGr9 Q351N; assay type: cell-based
# BmGr9 D99N = experiment: GCaMP calcium flux assay, BmGr9 D99N; assay type: cell-based, Bombyx mori
# BmGr9 Y332F = BmGr9 Y332F (Bombyx mori, UniProt B3GTD7, Y332F); experiment: GCaMP calcium flux assay, BmGr9 Y332F; assay type: cell-based
# BmGr9 H358A = BmGr9 H358A (Bombyx mori, UniProt B3GTD7, H358A); experiment: GCaMP calcium flux assay, BmGr9 H358A; assay type: cell-based
# BmGr9 F444A = experiment: GCaMP calcium flux assay, BmGr9 F444A; assay type: cell-based, Bombyx mori
# BmGr9 T330V = BmGr9 T330V (Bombyx mori, UniProt B3GTD7, T330V); experiment: GCaMP calcium flux assay, BmGr9 T330V; assay type: cell-based
# BmGr9 Q443D_Q445R = BmGr9 Q443D_Q445R (Bombyx mori, UniProt B3GTD7, Q443D/Q445R); experiment: GCaMP calcium flux assay, BmGr9 Q443D_Q445R; assay type: cell-based; conditions: 95% CI in parentheses
# BmGr9 Q445A = BmGr9 Q445A (Bombyx mori, UniProt B3GTD7, Q445A); experiment: GCaMP calcium flux assay, BmGr9 Q445A; assay type: cell-based
# BmGr9 [1] = biological target: T1, BmGr9 (Bombyx mori, UniProt B3GTD7); experiment: Cell-based GCaMP calcium flux assay, wild-type BmGr9
# BmGr9 W193F = experiment: GCaMP calcium flux assay, BmGr9 W193F; assay type: cell-based, Bombyx mori
# BmGr9 Q443A = experiment: GCaMP calcium flux assay, BmGr9 Q443A; assay type: cell-based, Bombyx mori
# BmGr9 Q445E = BmGr9 Q445E (Bombyx mori, UniProt B3GTD7, Q445E); experiment: GCaMP calcium flux assay, BmGr9 Q445E; assay type: cell-based
# BmGr9 [2] = biological target: T1, BmGr9; experiment: Intrinsic tryptophan fluorescence of detergent-solubilized purified BmGr9; assay type: binding
# BmGr9 Q443D = BmGr9 Q443D (Bombyx mori, UniProt B3GTD7, Q443D); experiment: GCaMP calcium flux assay, BmGr9 Q443D; assay type: cell-based
# BmGr9 Q351A = BmGr9 Q351A (Bombyx mori, UniProt B3GTD7, Q351A); experiment: GCaMP calcium flux assay, BmGr9 Q351A; assay type: cell-based
# BmGr9 T330S = BmGr9 T330S (Bombyx mori, UniProt B3GTD7, T330S); experiment: GCaMP calcium flux assay, BmGr9 T330S; assay type: cell-based
# BmGr9 Y332L = experiment: GCaMP calcium flux assay, BmGr9 Y332L; assay type: cell-based, Bombyx mori
# BmGr9 R86K = BmGr9 R86K (Bombyx mori, UniProt B3GTD7, R86K); experiment: GCaMP calcium flux assay, BmGr9 R86K; assay type: cell-based
# BmGr9 D99A = experiment: GCaMP calcium flux assay, BmGr9 D99A; assay type: cell-based, Bombyx mori
# BmGr9 Y190F = BmGr9 Y190F (Bombyx mori, UniProt B3GTD7, Y190F); experiment: GCaMP calcium flux assay, BmGr9 Y190F; assay type: cell-based; conditions: 95% CI in parentheses
# BmGr9 T330A = experiment: GCaMP calcium flux assay, BmGr9 T330A; assay type: cell-based, Bombyx mori
# BmGr9 F333A = experiment: GCaMP calcium flux assay, BmGr9 F333A; assay type: cell-based, Bombyx mori
# BmGr9 Q443E = BmGr9 Q443E (Bombyx mori, UniProt B3GTD7, Q443E); experiment: GCaMP calcium flux assay, BmGr9 Q443E; assay type: cell-based
# BmGr9 Q351E = experiment: GCaMP calcium flux assay, BmGr9 Q351E; assay type: cell-based, Bombyx mori
# T1 sequence (B3GTD7 entry or part of it): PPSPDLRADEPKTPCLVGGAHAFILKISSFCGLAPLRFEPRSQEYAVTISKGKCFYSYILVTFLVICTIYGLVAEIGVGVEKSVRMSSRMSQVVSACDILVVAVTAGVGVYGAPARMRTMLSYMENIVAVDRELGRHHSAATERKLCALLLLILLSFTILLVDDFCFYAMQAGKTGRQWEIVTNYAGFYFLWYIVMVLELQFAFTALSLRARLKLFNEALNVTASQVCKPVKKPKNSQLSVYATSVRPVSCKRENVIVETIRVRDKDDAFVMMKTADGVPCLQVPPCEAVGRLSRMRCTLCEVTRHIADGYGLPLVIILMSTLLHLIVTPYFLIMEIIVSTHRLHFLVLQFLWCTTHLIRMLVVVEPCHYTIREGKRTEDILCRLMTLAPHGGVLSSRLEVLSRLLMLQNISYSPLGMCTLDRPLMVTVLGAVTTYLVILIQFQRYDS
# Sequence of BmGr9 Q445A (B3GTD7 entry or part of it Q445A): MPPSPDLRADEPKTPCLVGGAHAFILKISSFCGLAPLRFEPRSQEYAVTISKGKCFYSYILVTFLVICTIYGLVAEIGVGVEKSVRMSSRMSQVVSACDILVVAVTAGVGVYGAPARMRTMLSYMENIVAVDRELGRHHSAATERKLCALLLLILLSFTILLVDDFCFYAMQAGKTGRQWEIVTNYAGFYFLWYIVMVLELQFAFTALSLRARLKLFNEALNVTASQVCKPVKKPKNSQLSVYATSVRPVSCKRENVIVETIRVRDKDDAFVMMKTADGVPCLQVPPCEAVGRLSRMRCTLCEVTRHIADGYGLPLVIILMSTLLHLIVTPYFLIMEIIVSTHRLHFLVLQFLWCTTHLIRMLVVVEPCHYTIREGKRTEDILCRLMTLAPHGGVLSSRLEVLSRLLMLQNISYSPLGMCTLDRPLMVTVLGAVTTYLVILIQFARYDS
# Sequence of BmGr9 Y332F (B3GTD7 entry or part of it Y332F): as the sequence (B3GTD7 entry or part of it Q445A) above, with Y332F, A445Q counted along it
# Sequence of BmGr9 Q443E (B3GTD7 entry or part of it Q443E): as the sequence (B3GTD7 entry or part of it Q445A) above, with Q443E, A445Q counted along it
# Sequence of BmGr9 Q445E (B3GTD7 entry or part of it Q445E): as the sequence (B3GTD7 entry or part of it Q445A) above, with A445E counted along it
# Sequence of BmGr9 Q443E_Q445R (B3GTD7 entry or part of it Q443E/Q445R): as the sequence (B3GTD7 entry or part of it Q445A) above, with Q443E, A445R counted along it
# Sequence of BmGr9 T330V (B3GTD7 entry or part of it T330V): as the sequence (B3GTD7 entry or part of it Q445A) above, with T330V, A445Q counted along it
# Sequence of BmGr9 Q351A (B3GTD7 entry or part of it Q351A): as the sequence (B3GTD7 entry or part of it Q445A) above, with Q351A, A445Q counted along it
# Sequence of BmGr9 T330S (B3GTD7 entry or part of it T330S): as the sequence (B3GTD7 entry or part of it Q445A) above, with T330S, A445Q counted along it
# Sequence of BmGr9 Q443D (B3GTD7 entry or part of it Q443D): as the sequence (B3GTD7 entry or part of it Q445A) above, with Q443D, A445Q counted along it
# Sequence of BmGr9 R86K (B3GTD7 entry or part of it R86K): as the sequence (B3GTD7 entry or part of it Q445A) above, with R86K, A445Q counted along it
# Sequence of BmGr9 Q443E_Q445K (B3GTD7 entry or part of it Q443E/Q445K): as the sequence (B3GTD7 entry or part of it Q445A) above, with Q443E, A445K counted along it
# Sequence of BmGr9 Q351N (B3GTD7 entry or part of it Q351N): as the sequence (B3GTD7 entry or part of it Q445A) above, with Q351N, A445Q counted along it
# Sequence of BmGr9 F189Y (B3GTD7 entry or part of it F189Y): as the sequence (B3GTD7 entry or part of it Q445A) above, with F189Y, A445Q counted along it
# Sequence of BmGr9 P331A (B3GTD7 entry or part of it P331A): as the sequence (B3GTD7 entry or part of it Q445A) above, with P331A, A445Q counted along it
# Sequence of BmGr9 Q445N (B3GTD7 entry or part of it Q445N): as the sequence (B3GTD7 entry or part of it Q445A) above, with A445N counted along it
# Sequence of BmGr9 Y190F (B3GTD7 entry or part of it Y190F): as the sequence (B3GTD7 entry or part of it Q445A) above, with Y190F, A445Q counted along it
# Sequence of BmGr9 Q443D_Q445R (B3GTD7 entry or part of it Q443D/Q445R): as the sequence (B3GTD7 entry or part of it Q445A) above, with Q443D, A445R counted along it
# Sequence of BmGr9 H358A (B3GTD7 entry or part of it H358A): as the sequence (B3GTD7 entry or part of it Q445A) above, with H358A, A445Q counted along it
smiles,measurement,setting,value
O=C(CO)[C@@H](O)[C@H](O)[C@H](O)CO [D-fructose],F max,BmGr9 D165N,~0.10
same,activation by D-fructose (printed in Hill Slope column),BmGr9 D165N,no activity
same,"activation by D-fructose (Fmax, Hill slope, EC50 fit)",BmGr9 W354F,no activity
same,EC50,BmGr9 Q443E_Q445R,4.07 mM
same,Hill Slope,"BmGr9 Q443E_Q445R; Q443E_Q445R, 95% CI in parentheses",2.02 (1.27 to 3.33)
same,"activation by D-fructose (Fmax, Hill slope, EC50 fit)",BmGr9 D165A,no activity
same,"activation by D-fructose (Fmax, Hill slope, EC50 fit)",BmGr9 Q445R,no activity
same,F max,BmGr9 H358Q,~0.14
same,Hill Slope,BmGr9 H358Q,~1.43
same,EC50,BmGr9 Q445N,20.3 mM
same,Hill Slope,"BmGr9 Q445N; Q445N, 95% CI in parentheses",1.49 (0.79 to 2.76)
same,EC50,BmGr9 Q443E_Q445K,5.1 mM
same,Hill Slope,"BmGr9 Q443E_Q445K; Q443E_Q445K, 95% CI in parentheses",2.28 (1.51 to 3.62)
same,EC50,BmGr9 P331A,5.5 mM
same,Hill Slope,"BmGr9 P331A; P331A, 95% CI in parentheses",1.43 (0.87 to 2.39)
same,"activation by D-fructose (Fmax, Hill slope, EC50 fit)",BmGr9 Q443N,no activity
same,EC50,BmGr9 F189Y,~0.1 mM
same,Hill Slope,"BmGr9 F189Y; F189Y, 95% CI in parentheses",1.05 (0.44 to 2.15)
same,EC50,BmGr9 Q351N,~8 mM
same,Hill Slope,BmGr9 Q351N; Q351N,~0.71
same,"activation by D-fructose (Fmax, Hill slope, EC50 fit)",BmGr9 D99N,no activity
same,EC50,BmGr9 Y332F,2.6 mM
same,apparent affinity relative to wild-type,BmGr9 Y332F; Tyr332 to Phe,slightly increases the apparent affinity
same,Hill Slope,BmGr9 Y332F; Y332F,~2.36
same,Hill Slope,BmGr9 H358A,~1.06
same,"activation by D-fructose (Fmax, Hill slope, EC50 fit)",BmGr9 F444A,no activity
same,EC50,BmGr9 T330V,~98 mM
same,Hill Slope,BmGr9 T330V; T330V,~6.22
same,Hill Slope,BmGr9 Q443D_Q445R,0.31 (0.13 to 1.13)
same,EC50,BmGr9 Q445A,2.01 mM
same,Hill Slope,BmGr9 Q445A; Q445A,~3.78
same,Fluorescence change relative to wild-type BmGr9,"BmGr9 Q445A; Q445A, 100 mM D-fructose",more active than wild-type BmGr9
same,Activation of BmGr9 (change in fluorescence) by sweet compound,"BmGr9 [1]; 100 mM sweet compound, HEK293 cells with BmGr9 plus GCaMP vs GCaMP only",elicited a strong response; also recorded: significantly different activity
same,EC50,"BmGr9 [1]; EC50, WT BmGr9, 95% CI in parentheses",8.71 mM
same,Hill coefficient,"BmGr9 [1]; Fig. 1b dose-response, n = 8, 95% CI in parentheses",2.3 (1.3–4.6)
same,Hill Slope,"BmGr9 [1]; WT BmGr9, 95% CI in parentheses",1.94 (1.48 to 2.58)
same,EC50,"BmGr9 [1]; half-maximal activation concentration (EC50), Fig. 1b dose-response, HEK293 cells with BmGr9 and GCaMP6s, n = 8, 95% CI in parentheses",9 mM and 8.2 mM
same,"activation by D-fructose (Fmax, Hill slope, EC50 fit)",BmGr9 W193F,no activity
same,"activation by D-fructose (Fmax, Hill slope, EC50 fit)",BmGr9 Q443A,no activity
same,EC50,BmGr9 Q445E,15.3 mM
same,Hill Slope,"BmGr9 Q445E; Q445E, 95% CI in parentheses",1.56 (0.68 to 3.75)
same,Kd,"BmGr9 [2]; KD (apparent affinity, tryptophan fluorescence), purified BmGr9 in digitonin, n = 4, 95% CI in parentheses",16 mM and 15.8 mM
same,Trp fluorescence emission maximum,"BmGr9 [2]; saturating D-fructose, maximum near 330 nm without sugar",324 nm
same,EC50,BmGr9 Q443D,10 mM
same,Hill Slope,"BmGr9 Q443D; Q443D, 95% CI in parentheses",1.52 (0.94 to 2.57)
same,EC50,BmGr9 Q351A,3.9 mM
same,Hill Slope,"BmGr9 Q351A; Q351A, 95% CI in parentheses",1.89 (0.60 to 5.26)
same,EC50,BmGr9 T330S,~100 mM
same,Hill Slope,BmGr9 T330S; T330S,~3.03
same,"activation by D-fructose (Fmax, Hill slope, EC50 fit)",BmGr9 Y332L,no activity
same,EC50,BmGr9 R86K,10.4 mM
same,Hill Slope,BmGr9 R86K; R86K,~2.45
same,"activation by D-fructose (Fmax, Hill slope, EC50 fit)",BmGr9 D99A,no activity
same,Hill Slope,BmGr9 Y190F,0.98 (0.56 to 2.07)
same,"activation by D-fructose (Fmax, Hill slope, EC50 fit)",BmGr9 T330A,no activity
same,"activation by D-fructose (Fmax, Hill slope, EC50 fit)",BmGr9 F333A,no activity
same,EC50,BmGr9 Q443E,1.32 mM
same,apparent affinity relative to wild-type,BmGr9 Q443E; Gln443 to Glu,increased apparent affinity
same,Hill Slope,BmGr9 Q443E; Q443E,~2.57
same,Fluorescence change relative to wild-type BmGr9,"BmGr9 Q443E; Q443E, 100 mM D-fructose",more active than wild-type BmGr9
same,"activation by D-fructose (Fmax, Hill slope, EC50 fit)",BmGr9 Q351E,no activity
